From US10125137B2, “Benzofurans substituted with bicyclic secondary benzamide as HCV inhibitors” (BRISTOL-MYERS SQUIBB COMPANY, priority 2015, dated 2018)
Where two headings read alike, the source gives them in different places.

What was measured:
[1] = tested on: genotype 1b (Con-1) HCV replicon; assay: HCV Replicon Luciferase Assay; assay type: cell-based; conditions: Hepatitis C virus, 72 h, genotype 1b HCV replicon, Huh-7, Renilla luciferase, 3 days
Method: Cell Lines. The cell lines used to evaluate compounds consist of a human hepatocyte derived cell line (Huh-7) that constitutively expresses a genotype 1b (Con-1) HCV replicon or a genotype 1b (Con-1) HCV replicon with an asparagine replacing the cysteine at amino acid 316, or a genotype 2a (JFH-1) replicon, containing a Renilla luciferase reporter gene. These cells were maintained in Dulbecco's modified Eagle medium (DMEM) containing 10% FBS, 100 U/mL penicillin/streptomycin and 1.0 mg/mL G418.
HCV Replicon Luciferase Assay. To evaluate compound efficacy, titrated compounds were transferred to sterile 384-well tissue culture treated plates, and the plates were seeded with HCV replicon cells (50 μL at a density of 2.4×10^3 cells/well) in DMEM containing 4% FBS (final DMSO concentration at 0.5%). After 3 days incubation at 37° C., cells were analyzed for Renilla Luciferase activity using the EnduRen substrate (Promega cat #E6485) according to the manufacturer's directions. Briefly, the EnduRen substrate was diluted in DMEM and then added to the plates to a final concentration of 7.5 μM. The plates were incubated for at least 1 h at 37° C. then read on a Viewlux Imager (PerkinElmer) using a luminescence program. The 50% effective concentration (EC50) was calculated using the four-parameter logistic formula noted above.

[2] = tested on: HCV; conditions: single agent: transient decrease then rebound; cited from earlier work
[3] = extended dosing of combination regimens with interferon and ribavirin; cited from earlier work

| Compound | EC50 ([1]; read-out: EC50 1b (class)) [µM] | also measured |
| --- | --- | --- |
| CNC(=O)c1c(-c2ccc(F)cc2)oc2cc(N(CCF)S(C)(=O)=O)c(-c3cccc(C(=O)N4CCn5cc(C(F)(F)F)nc5C4)c3)cc12 [Compound 1001] | < 0.1 | EC50 ([1]; read-out: EC50 (uM) 1b): 0.0349 µM |
| CNC(=O)c1c(-c2ccc(F)cc2)oc2cc(N(CCF)S(C)(=O)=O)c(-c3cccc(C(=O)N4CCn5c(nnc5C(F)(F)F)C4)c3)cc12 [Compound 1002] | 0.1 to 1 |  |
| CNC(=O)c1c(-c2ccc(F)cc2)oc2cc(N(CCF)S(C)(=O)=O)c(-c3cccc(C(=O)N4CCc5nc[nH]c5C4)c3)cc12 [Compound 1003] | > 1 |  |
| CNC(=O)c1c(-c2ccc(F)cc2)oc2cc(N(CCF)S(C)(=O)=O)c(-c3cccc(C(=O)N4CCc5[nH]ncc5C4)c3)cc12 [Compound 1004] | 0.1 to 1 | EC50 ([1]; read-out: EC50 (uM) 1b): 0.975 µM |
| CNC(=O)c1c(-c2ccc(F)cc2)oc2cc(N(CCF)S(C)(=O)=O)c(-c3cccc(C(=O)N4CCn5cccc5C4c4cccnc4)c3)cc12 (stereo not drawn) [Compound 1005] | < 0.1 |  |
| CNC(=O)c1c(-c2ccc(F)cc2)oc2cc(N(CCF)S(C)(=O)=O)c(-c3cccc(C(=O)N4CCC5CC54)c3)cc12 (stereo not drawn) [Compound 1006] | < 0.1 |  |
| CNC(=O)c1c(-c2ccc(F)cc2)oc2cc(N(CCF)S(C)(=O)=O)c(-c3cccc(C(=O)N4[C@H](C(N)=O)C[C@@H]5C[C@@H]54)c3)cc12 [Compound 1007] | > 1 |  |
| CNC(=O)c1c(-c2ccc(F)cc2)oc2cc(N(CCF)S(C)(=O)=O)c(-c3cccc(C(=O)N4CCC5(CCN(C(=O)OC(C)(C)C)C5)C4)c3)cc12 (stereo not drawn) [Compound 1008] | < 0.1 | EC50 ([1]; read-out: EC50 (uM) 1b): 0.0964 µM |
| CNC(=O)c1c(-c2ccc(F)cc2)oc2cc(N(CCF)S(C)(=O)=O)c(-c3cccc(C(=O)N4CC5CCN(C(=O)OC(C)(C)C)C5C4)c3)cc12 (stereo not drawn) [Compound 1009] | 0.1 to 1 |  |
| CNC(=O)c1c(-c2ccc(F)cc2)oc2cc(N(CCF)S(C)(=O)=O)c(-c3cccc(C(=O)N4CC5CCN(C(=O)OC(C)(C)C)CC5C4)c3)cc12 (stereo not drawn) [Compound 1010] | < 0.1 |  |
| CNC(=O)c1c(-c2ccc(F)cc2)oc2cc(N(CCO)S(C)(=O)=O)c(C3CC3)cc12 [HCV-796] |  | HCV RNA levels in patients [2]: reduce HCV RNA levels; hepatic toxicity [3]: hepatic toxicity |
